The values that follow come from US20240385173A1, “METHODS AND APPARATUS FOR TESTING IMMUNO-ONCOLOGY DRUGS AND BIOLOGICS USING MICROORGANOSPHERES” (Xilis, Inc., priority 2021, published 2024).

“Also recorded” adds a separate entry of the source. Where two headings read alike, the source gives them in different places.

Data set [1] relates to PDX240 bulk organoids and MOSs. Briefly: Cell viability drug response curves, bulk organoids versus MOSs, PDX240. The following applies: cell viabilities after 3 days of treatment. It counts as cell-based, human. The text has this:
In some embodiments, the MOSs may be formed from cell lines grown as part of a Patient Derived Xenograft (PDX). For example, FIGS. 28A-28D illustrate MOSs formed from cultured PDX240 cells. PDX240 cells are a Patient Derived Xenograft (PDX) tumor cell line (numbered 240 based on patient source) that were human tumors grown in immunodeficient mice (PDX) to form in vivo tumors. The xenograft tissue was extracted dissociated, and used to form MOSs as described above. In this example a single cell was included in each MOS as it was formed. […] With progressive time in culture, at least some of the MOSs show the cells dividing and forming structures.
(§1) Organoids were formed from Patient Derived Xenograft cells (including the PDX240 cells described above and a second PDX cell line, PDX19187) and were compared with MOSs formed using the same cells. The organoids were formed using conventional techniques in which a large mass of MATRIGEL in a well or dish was seeded with cells and cultured until growth was confirmed. MOSs were generated from the traditional organoids.
(§2) Both traditional (“bulk”) organoids and the MOSs were then treated with the same drugs (e.g., Oxaliplatin or SN38) and cell viabilities were measured after 3 days of treatment.

The test system of data set [2] is MOSs derived from multiple myeloma (MM) bone marrow biopsies. Briefly: Caspase 3/7 green dye apoptosis assay on multiple myeloma MOSs (Incucyte imaging). Format: cell-based, human. The following applies: MM MOSs on day 11, images every 2 hours for 4 days. As for the experimental part: FIGS. 44A and 44B show the efficacy of Lenalidomide and Bortezoid on MOSs derived from multiple myeloma (MM) bone marrow biopsies. MM MOSs (on day 11) were treated with Lenalidomine (5 uM) or Bortezoid (2 nM). Caspase 3/7 green dye was added in the assay to monitor apoptosis. Incucyte images were taken every 2 hours for 4 days. […] If this test were run on, for example, traditional bulk organoids, the results would not be reliable (due to the lack of patient immune cells) leading to uncertainty in the best course of action for patient treatment.

Data set [3] concerns MOSs from biopsy material. Nature of the data set: Drug effect screen on MOSs generated from biopsy material (Example 3). The note with it: FIGS. 23B, 23C. Format: cell-based, human. The procedure:
(§3) In a similar set of experiments, MOSs were generated from biopsy material (FIG. 23A), and a drug effect screen was performed using the resulting MOSs. […] Thus, the MOSs correlated strongly with patient response to the standard of care drugs. In this case, the patient endured six months of side effects and toxicities that may have been avoided by the predicted response from the MOSs, indicating (within 7-10 days from the biopsy) that the tumor would not respond to these drugs.

Data set [4] concerns patient tumor. Nature of the data set: Actual response of the patient's tumor to drug treatment. Format: in vivo, human. The note with it: for patient response to treatment: Example 3 patient, treated with both Oxalipalatin and Irinotecan, after 6 months of treatment. As for the experimental part:
as §3

Data set [5] concerns PDX19187 bulk organoids and MOSs. Format: cell-based, human. The note with it: PDX19187 (also printed PDO19187, PDZ-19187), cell viabilities after 3 days of treatment. As for the experimental part: as §1, §2
Data set [6] deals with traditional cell line. Briefly: Traditional (2D) cell line dosed with drug. The following applies: all dose ranges examined; FIG. 22A. It counts as cell-based. An excerpt:
As mentioned above, the MOSs and methods of using them to screen for drug compositions may be used to accurately predict the response of a patient tumor to one or more drug therapies. […] For example, in FIG. 22A-22D, the MOSs, but not a cell line, was able to correlate with patient response.

In data set [7] the test system is tumor MOSs from patient biopsy. Nature of the data set: Drug screen on tumor MOSs generated from a patient biopsy (Example 2). Format: cell-based, human. The following applies: FIG. 22B.
Data set [8] concerns human liver MOSs. Nature of the data set: Toxicity assay using human liver MOSs. It counts as cell-based. The note with it: 10 mM; FIGS. 34A-34B. The text has this:
Similarly, FIGS. 34A-34B also show toxicity assays using human liver MOSs.

The test system of data set [9] is mouse liver MOSs. Briefly: Toxicity assay using mouse liver MOSs. It counts as cell-based. The note with it: 10 mM; FIGS. 33A-33B.
Data set [10] has as its system MOSs derived from pulmonary tumor biopsy. Briefly: Annexin V apoptosis assay on MOSs derived from a pulmonary tumor biopsy. Format: cell-based, human. As for the experimental part:
(§4) Assays of the MOSs for these pulmonary and renal tumor biopsies were prepared with an Annexin V marker to indicate cellular apoptosis. […] If this test were run on, for example, traditional bulk organoids, the results would not be meaningful (due to the lack of patient immune cells) leading to uncertainty in the best course of action for patient treatment.
Assays of the MOSs for this pulmonary tumor biopsy were prepared with an Annexin V marker to indicate cellular apoptosis. […] If this test were run on, for example, traditional bulk organoids, the results would be less accurate (because ESK1 would not be able to reach its target) leading to uncertainty in the best course of action for patient treatment.
Assays of the MOSs for this pulmonary tumor biopsy were prepared with an Annexin V marker to indicate cellular apoptosis and Cytolight Red dye to indicate tumor infiltrating lymphocytes (TIIs). […] If this test were run on, for example, traditional bulk organoids, the results would be less accurate (due to the inability of PBMC to penetrate the traditional bulk organoids) leading to uncertainty in the best course of action for patient treatment.
Assays of the MOSs for this pulmonary tumor biopsy were prepared with an Annexin V marker to indicate cellular apoptosis. […] This is an indication that TIIs can penetrate MOS to kill tumor cells. […]

Data set [11] has as its system MOSs derived from renal tumor biopsy. Briefly: Annexin V apoptosis assay on MOSs derived from a renal tumor biopsy. Format: cell-based, human. The procedure:
as §4

For `O=c1[nH]cc(F)c(=O)[nH]1` [5-FU, Fluorouracil], the “drug response curves of bulk organoids compared with MOSs (cell viability)” value in data set [1] was “comparable responses”.

`CC(C)C[C@H](NC(=O)[C@H](Cc1ccccc1)NC(=O)c1cnccn1)B(O)O` [Bortezoid]: in data set [2] (2 nM), the “response of MM MOSs in the form of tumor cell apoptosis (Caspase 3/7 green dye)” value was “does not and not”.

`CCc1c2c(nc3ccc(OC(=O)N4CCC(N5CCCCC5)CC4)cc13)-c1cc3c(c(=O)n1C2)COC(=O)[C@]3(O)CC` [Irinotecan]: the “percent survival of the MOSs in the presence of the drug” value in [3] was “lack of effect”. In addition, the “patient response to treatment” value in data set [4] was “no response”.

Consider `Nc1cccc2c1CN(C1CCC(=O)NC1=O)C2=O` (stereo not drawn) [Lenalidomide], for which the “response of MM MOSs in the form of tumor cell apoptosis (Caspase 3/7 green dye)” value in data set [2] (5 uM) is on record as “good response”; in data set [2] (5 uM, listed as Lenalidomine), “induces apoptosis”.

Turning to `O=C1[O][Pt]2([NH][C@@H]3CCCC[C@H]3[NH]2)[O]C1=O` [Oxaliplatin], the “drug response curves of bulk organoids compared with MOSs (cell viability)” value in data set [5] (listed as Oxalipalatin) is on record as “comparable response”. Moreover, the “effect of drug on traditional cell line” value in data set [6] was “no effect”. Also, the “cell survival from the tumor MOSs” value in data set [7] is “significant decreases in cell survival”. Moreover, the “percent survival of the MOSs in the presence of the drug” value in data set [3] is on record as “no change in the percent survival”. The “tumor response when patient treated with the drug” value in data set [4] (Example 2 patient, FIGS. 22C (before) and 22D (post treatment)) is recorded as “responded to treatment”. Besides, the “patient response to treatment” value in data set [4] is on record as “no response”.

For `CCc1c2c(nc3ccc(O)cc13)-c1cc3c(c(=O)n1C2)COC(=O)[C@]3(O)CC` [SN38, 7-Ethyl-10-hydroxy-camptothecin], the “drug response curves of bulk organoids compared with MOSs (cell viability)” value in data set [5] and in data set [1] was “comparable responses” each time.

With `CC(=O)Nc1ccc(O)cc1` [acetaminophen], the “effect on tissue in human liver MOSs versus control group” value in data set [8] was “significant increase atypical tissue structures (arrows) and debris”. Moreover, the “effect on tissue in mouse liver MOSs versus control group” value in [9] was “smaller and contains many dead cells”.

For Nivolumab, the “response of MOSs in the form of tumor cell apoptosis (Annexin V marker)” value in data set [10] and in [11] was “induces apoptosis; also recorded: good response” each time.
